According to US9902728B2, “Pyrrolo and pyrazolopyrimidines as ubiquitin-specific protease 7 inhibitors” (Forma Therapeutics, Inc., priority 2014, dated 2018):

The compounds below were run against T1, USP7 (Homo sapiens, UniProt Q93009) (assay: USP7 Assay A (Ubitquin-Rhodamine 110 Assay)). Settings: USP7 activity in USP7 assay A and B (table does not say which assay per compound); read-out: USP7_IC50.
T1 construct: USP7, construct USP7 (208-1102) 6*His, Viva Biotech; 6xHis (C); purchased Viva Biotech
T1 sequence (Q93009 208-1102): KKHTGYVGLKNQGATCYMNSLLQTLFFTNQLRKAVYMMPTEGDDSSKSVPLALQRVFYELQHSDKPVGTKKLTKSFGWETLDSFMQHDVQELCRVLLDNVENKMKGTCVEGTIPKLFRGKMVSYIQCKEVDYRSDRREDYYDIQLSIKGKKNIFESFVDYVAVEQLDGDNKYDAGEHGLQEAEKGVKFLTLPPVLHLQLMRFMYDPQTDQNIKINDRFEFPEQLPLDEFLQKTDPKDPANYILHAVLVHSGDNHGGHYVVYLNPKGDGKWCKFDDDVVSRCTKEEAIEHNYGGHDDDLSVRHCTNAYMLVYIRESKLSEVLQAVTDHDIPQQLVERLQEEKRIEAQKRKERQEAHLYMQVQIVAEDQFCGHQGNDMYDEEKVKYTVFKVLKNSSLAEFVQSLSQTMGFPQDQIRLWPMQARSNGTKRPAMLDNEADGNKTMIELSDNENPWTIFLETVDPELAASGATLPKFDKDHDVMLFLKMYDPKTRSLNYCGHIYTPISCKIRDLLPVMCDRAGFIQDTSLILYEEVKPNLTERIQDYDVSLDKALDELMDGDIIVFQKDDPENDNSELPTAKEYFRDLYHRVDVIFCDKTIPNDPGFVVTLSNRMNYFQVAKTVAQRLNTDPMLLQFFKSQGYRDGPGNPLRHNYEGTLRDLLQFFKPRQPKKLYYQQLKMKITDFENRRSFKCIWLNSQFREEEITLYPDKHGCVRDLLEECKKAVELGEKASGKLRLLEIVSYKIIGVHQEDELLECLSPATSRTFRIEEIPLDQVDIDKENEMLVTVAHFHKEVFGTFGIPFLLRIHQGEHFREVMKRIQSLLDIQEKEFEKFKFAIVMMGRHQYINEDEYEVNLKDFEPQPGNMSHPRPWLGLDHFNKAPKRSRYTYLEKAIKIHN
Assay type: biochemical
Outline: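 Ub-Rh110 cleavage in 20 mM Tris-HCl pH 8.0 with 1 mM GSH, 0.03% BGG, 0.01% Triton X-100; compound preincubated with enzyme 30 min before substrate.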
Work on `O=C(c1ccc(N2CCN3CCC2CC3)cc1)N1CCC(O)(Cn2cnc3c(cnn3-c3ccc(F)cc3)c2=O)CC1` [Compound I-1682] yielded an IC50 of 1 to 10 µM. `Cc1ccnc(-c2ccc(-n3ncc4c(=O)n(CC5(O)CCN(C(=O)C6CC6)CC5)cnc43)cc2)c1` [Compound I-1725] gave an IC50 of 1 to 10 µM. Work on `CN1CCN(c2ccn(-c3ccc(-n4ncc5c(=O)n(CC6(O)CCN(C(=O)C7CC7)CC6)cnc54)cc3)n2)CC1` [Compound I-818] yielded an IC50 of less than 0.2 µM. With `O=C(c1cnn(C2CC2)c1)N1CCC(O)(Cn2cnc3c(cnn3-c3ccc(F)cc3)c2=O)CC1` [Compound I-726] the IC50 was 0.2 to 1 µM. `O=C(c1cnc(Oc2ccccn2)o1)N1CCC(O)(Cn2cnc3c(cnn3-c3ccc(Cl)cc3)c2=O)CC1` [Compound I-1086] gave an IC50 of 1 to 10 µM. With `CN1CCN(c2ccc(-n3ncc4c(=O)n(CC5(O)CCN(C(=O)C6(C)CC6)CC5)cnc43)cc2)CC1C(F)F` (centres unmarked) [Compound I-1693] the IC50 was 0.2 to 1 µM. With `O=C(C[C@@H](C(F)F)n1ccc(Cl)n1)N1CCC(O)(Cn2cnc3c(cnn3-c3ccc(F)cc3)c2=O)CC1` [Compound I-732] the IC50 was 1 to 10 µM. `O=C(C[C@H](C(F)F)n1cccn1)N1CCC(O)(Cn2cnc3c(cnn3-c3ccc(CN4CCC4)cc3)c2=O)CC1` [Compound I-855] showed an IC50 of less than 0.2 µM. In the case of `Cc1ncc(C(=O)N2CCC(O)(Cn3cnc4c(cnn4-c4ccc(C5CCC5)cc4)c3=O)CC2)o1` [Compound I-846], the IC50 is reported as 0.2 to 1 µM. `O=C(C[C@@H](C(F)F)n1ccc(F)n1)N1CCC(O)(Cn2cnc3c(cnn3-c3ccc(F)cc3)c2=O)CC1` [Compound I-542] was tested, and the IC50 was less than 0.2 µM. `CC1(C(=O)N2CCC(O)(Cn3cnc4c(cnn4-c4cccc(N5CCN(C6COC6)CC5)c4)c3=O)CC2)CC1` [Compound I-1700] gave an IC50 of 0.2 to 1 µM. In the case of `Cn1ccc(OC2CCC(C(=O)N3CCC(O)(Cn4cnc5c(cnn5-c5ccc(F)cc5)c4=O)CC3)CC2)n1` (centres unmarked) [Compound I-754], the IC50 is reported as 0.2 to 1 µM. Compound `CN[C@@H]1CCN(c2ccc(-c3ccc(-n4ncc5c(=O)n(CC6(O)CCN(C(=O)C7CC7)CC6)cnc54)cc3)cc2)C1` [Compound I-690] has an IC50 of 0.2 to 1 µM. In the case of `CN1CCN(C(=O)N2CCC(O)(Cn3cnc4c(cnn4-c4ccc(OC5CCC(F)(F)CC5)cc4)c3=O)CC2)CC1` [Compound I-697], the IC50 is reported as greater than 10 µM. For `Cc1ccc(-n2ncc3c(=O)n(CC4(O)CCN(C(=O)c5ccc(Oc6ccc(OCCO)cn6)cc5)CC4)cnc32)cc1` [Compound I-1160], the IC50 was 0.2 to 1 µM. Work on `Cc1cc(OC2CCC(C(=O)N3CCC(O)(Cn4cnc5c(cnn5-c5ccc(F)cc5)c4=O)CC3)CC2)no1` (centres unmarked) [Compound I-756] yielded an IC50 of 0.2 to 1 µM. In the case of `CN1CCN(c2ccc(-n3ncc4c(=O)n(CC5(O)CCN(C(=O)C[C@@H](C(F)F)n6cccn6)CC5)cnc43)cc2)CC1` (single isomer, unassigned) [Compound I-827], the IC50 is reported as 1 to 10 µM. `O=C(C1CCC(Oc2ccncc2)CC1)N1CCC(O)(Cn2cnc3c(cnn3-c3ccc(F)cc3)c2=O)CC1` (centres unmarked) [Compound I-751] showed an IC50 of 1 to 10 µM. `O=C(c1ccc(F)cc1)N1CCC(O)(Cn2cnc3c(cnn3-c3ccc(N4CCN5CCCC[C@@H]5C4)cc3)c2=O)CC1` [Compound I-484, (R)-5-((1-(4-fluorobenzoyl)-4-hydroxypiperidin-4-yl)methyl)-1-(4-(octahydro-2H-pyrido[1,2-a]pyrazin-2-yl)phenyl)-1,5-dihydro-4H-pyrazolo[3,4-d]pyrimidin-4-one] gave an IC50 of less than 0.2 µM. With `CC(=O)N1CC2CC1CN2c1cccc(-n2ncc3c(=O)n(CC4(O)CCN(C(=O)C5(C)CC5)CC4)cnc32)c1` (centres unmarked) [Compound I-1748] the IC50 was 0.2 to 1 µM. `CC1(C(=O)N2CCC(O)(Cn3cnc4c(cnn4-c4ccc(-n5cc(C(F)(F)F)cn5)cc4)c3=O)CC2)CC1` [Compound I-1043] gave an IC50 of 0.2 to 1 µM. In the case of `O=C(C1CC1)N1CCC(O)(Cn2cnc3c(cnn3-c3ccc(N4CCC5(CC4)CC5)cc3)c2=O)CC1` [Compound I-1755], the IC50 is reported as 1 to 10 µM. In the case of `Cc1ccc(-n2ncc3c(=O)n(CC4(O)CCN(C(=O)c5ccc(Cl)cc5N)CC4)cnc32)cc1` [Compound I-1140], the IC50 is reported as 0.2 to 1 µM. For `C[C@@]1(O)CCN(c2ccc(-n3ncc4c(=O)n(CC5(O)CCN(C(=O)C6CCCCC6)CC5)cnc43)cc2)C1` [Compound I-783], the IC50 was 0.2 to 1 µM. With `CC(=O)NC1CCC(C(=O)N2CCC(O)(Cn3cnc4c(cnn4-c4ccc(F)cc4)c3=O)CC2)CC1` (centres unmarked) [Compound I-924] the IC50 was 1 to 10 µM. `C[C@@H](CC(=O)N1CCC(O)(Cn2cnc3c(cnn3-c3ccc(N4CC[C@@](C)(O)C4)cc3)c2=O)CC1)n1cccn1` [Compound I-1052] was tested, and the IC50 was 0.2 to 1 µM. `Cn1ncc2c1CC(C(=O)N1CCC(O)(Cn3cnc4c(cnn4-c4ccc(F)cc4)c3=O)CC1)CC2` (centres unmarked) [Compound I-725] gave an IC50 of 1 to 10 µM. For `O=C(c1ccc(F)cc1)N1CCC(O)(Cn2cnc3c(cnn3-c3ccc(-n4cc(CO)cn4)cc3)c2=O)CC1` [Compound I-1734], the IC50 was 0.2 to 1 µM. `CC1(C(=O)N2CCC(O)(Cn3cnc4c(cnn4-c4cccc(N5CC(O)C5)c4)c3=O)CC2)CC1` [Compound I-1678] was tested, and the IC50 was 0.2 to 1 µM. `CC1(C(=O)N2CCC(O)(Cn3cnc4c(cnn4-c4cccc(N5CCC(F)CC5)c4)c3=O)CC2)CC1` [Compound I-1561] showed an IC50 of less than 0.2 µM.

Same assay, conditions: USP7 assay A and B (table does not say which assay per compound); Ubiquitin-Rhodamine 110 substrate; read-out: USP7_IC50
For `C[C@H](CC(=O)N1CCC(O)(Cn2cnc3c(cnn3C)c2=O)CC1)c1ccccc1` [Compound I-57], the IC50 was 0.2 to 1 µM.

Same assay, conditions: USP7 assay A and B (table does not say which assay per compound); read-out: USP7_IC50
Work on `CN(C)C(=O)N1CCC(O)(Cn2cnc3c(cnn3-c3ccc(NC4CC(C)(C)C4)cc3)c2=O)CC1` [Compound I-1544] yielded an IC50 of 1 to 10 µM. In the case of `CN(C)C1CCN(c2cccc(-n3ncc4c(=O)n(CC5(O)CCN(C(=O)C6CC6)CC5)cnc43)c2)CC1` [Compound I-1209], the IC50 is reported as 0.2 to 1 µM. `O=C(C1CCCCC1)N1CCC(O)(Cn2cnc3c(cnn3-c3ccccc3)c2=O)CC1` [Compound I-189] was tested, and the IC50 was 0.2 to 1 µM. `O=C(C1CC1)N1CCC(O)(Cn2cnc3c(cnn3-c3cccc(Nc4ccncc4)c3)c2=O)CC1` [Compound I-1232] gave an IC50 of 1 to 10 µM. Compound `N#CCOc1ccc(-n2ncc3c(=O)n(CC4(O)CCN(C(=O)c5ccc(F)cc5)CC4)cnc32)cc1` [Compound I-1320] has an IC50 of 1 to 10 µM. `CC1(C(=O)N2CCC(O)(Cn3cnc4c(cnn4-c4ccccc4)c3=O)CC2)CC1` [Compound I-271] gave an IC50 of 1 to 10 µM. Compound `O=C(Nc1ccccc1)c1ccc(-n2ncc3c(=O)n(CC4(O)CCN(C(=O)C5CC5)CC4)cnc32)cc1` [Compound I-1490] has an IC50 of 1 to 10 µM. `Cc1oncc1S(=O)(=O)Nc1cccc(-n2ncc3c(=O)n(CC4(O)CCN(C(=O)C5CC5)CC4)cnc32)c1` [Compound I-1400] gave an IC50 of 1 to 10 µM. With `O=C(c1ccc(Oc2ccccn2)cc1)N1CCC(O)(Cn2cnc3c(cnn3-c3ccc(F)cc3)c2=O)CC1` [Compound I-538] the IC50 was 1 to 10 µM. `O=C(c1ccc(F)cc1)N1CCC(O)(Cn2cnc3c(cnn3-c3cccc(C4CCNCC4)c3)c2=O)CC1` [Compound I-993] gave an IC50 of 1 to 10 µM. For `O=C(c1ccc(F)cc1)N1CCC(O)(Cn2cnc3c(cnn3-c3ccc(F)c(N4CCNCC4)c3)c2=O)CC1` [Compound I-824], the IC50 was 0.2 to 1 µM. With `O=C(C1CC1)N1CCC(O)(Cn2cnc3c(cnn3-c3ccc(CN4CCC5(CCOCC5)C4)cc3)c2=O)CC1` [Compound I-443] the IC50 was 1 to 10 µM. `O=C(C1CC1)N1CCC(O)(Cn2cnc3c(cnn3-c3cccc(-c4cccc(O)c4)c3)c2=O)CC1` [Compound I-385] gave an IC50 of 1 to 10 µM. Compound `O=C(C1CC1)N1CCC(O)(Cn2cnc3c(cnn3-c3cccc(N4CCNCC4)c3)c2=O)CC1` [Compound I-498] has an IC50 of less than 0.2 µM. For `COc1cc(-n2ncc3c(=O)n(CC4(O)CCN(C(=O)c5ccc(F)cc5)CC4)cnc32)ccc1F` [Compound I-627], the IC50 was 1 to 10 µM. Work on `CN(C)C(=O)N1CCC(O)(Cn2cnc3c(cnn3-c3ccc(F)cc3)c2=O)CC1` [Compound I-279] yielded an IC50 of 1 to 10 µM. `CN1CCN(c2ccc(C(=O)N3CCC(O)(Cn4cnc5c(cnn5-c5ccc(F)cc5)c4=O)CC3)cc2F)CC1` [Compound I-537] gave an IC50 of 1 to 10 µM. With `CC1(C(=O)N2CCC(O)(Cn3cnc4c(cnn4-c4ccc(OC5CC(F)(F)C5)cc4)c3=O)CC2)CC1` [Compound I-1801] the IC50 was less than 0.2 µM. With `C[C@@H](CC(=O)N1CCC(O)(Cn2cnc3c(cnn3-c3ccc(F)cc3)c2=O)CC1)N1CC2CCCC2C1` (some centres unmarked) [Compound I-524] the IC50 was 1 to 10 µM. `Nc1ccc(Cl)cc1C(=O)N1CCC(O)(Cn2cnc3c(cnn3-c3ccccc3)c2=O)CC1` [Compound I-233] was tested, and the IC50 was 0.2 to 1 µM. `CN1CCN(c2ccc(-n3ncc4c(=O)n(CC5(O)CCN(C(=O)C6CC6)CC5)cnc43)cc2Cl)CC1` [Compound I-701] gave an IC50 of 1 to 10 µM. For `O=C(C1CC1)N1CCC(O)(Cn2cnc3c(cnn3-c3ccc(N4CCC5(CCOCC5)C4)cc3)c2=O)CC1` [Compound I-1216], the IC50 was 1 to 10 µM. `O=C(c1cccn1Cc1ccccc1)N1CCC(O)(Cn2cnc3c(cnn3-c3ccccc3)c2=O)CC1` [Compound I-150] was tested, and the IC50 was less than 0.2 µM. In the case of `CN1CCC(Oc2ccc(C(=O)N3CCC(O)(Cn4cnc5c(cnn5-c5ccc(F)cc5)c4=O)CC3)cc2)CC1` [Compound I-533], the IC50 is reported as 1 to 10 µM. `O=C(c1cccc(Cl)c1)N1CCC(O)(Cn2cnc3c(cnn3-c3ccc(F)cc3)c2=O)CC1` [Compound I-303] showed an IC50 of 1 to 10 µM. `O=C(c1ccc(Oc2ccccc2)cc1)N1CCC(O)(Cn2cnc3c(cnn3C3CC3)c2=O)CC1` [Compound I-152] gave an IC50 of 1 to 10 µM. `Cc1cc(C(=O)N2CCC(O)(Cn3cnc4c(cnn4-c4ccccc4)c3=O)CC2)nn1C` [Compound I-229] gave an IC50 of 1 to 10 µM. `Cn1cc(-n2ncc3c(=O)n(CC4(O)CCN(C(=O)c5ccc(F)cc5)CC4)cnc32)cn1` [Compound I-703] gave an IC50 of 1 to 10 µM. `O=C(C1CC1)N1CCC(O)(Cn2cnc3c(cnn3-c3cccc(NS(=O)(=O)c4cccc(Cl)c4)c3)c2=O)CC1` [Compound I-1406] showed an IC50 of 1 to 10 µM. For `O=C(c1ccc(Cl)cc1)N1CCC(O)(Cn2cnc3c(cnn3-c3ccc(F)cc3)c2=O)CC1` [Compound I-302, 5-{[1-(4-chlorobenzoyl)-4-hydroxypiperidin-4-yl]methyl}-1-(4-fluorophenyl)-1H,4H,5H-pyrazolo[3,4-d]pyrimidin-4-one], the IC50 was 0.2 to 1 µM. In the case of `C=CS(=O)(=O)N[C@H](Cc1ccccc1)C(=O)N1CCC(O)(Cn2cnc3c(cnn3-c3ccccc3)c2=O)CC1` [Compound I-814], the IC50 is reported as 0.2 to 1 µM.
